Among the data in PubChem BioAssay (NCI) are TGI and GI50 values, retold here.

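A five-concentration, 48-hour dose response in 96-well plates underlies each endpoint, interpolated linearly between surrounding concentrations. GI50 = concentration required for 50% inhibition of growth. TGI: concentration producing complete growth inhibition.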

Common to all, as to assay: DTP human tumour cell line panel, 48 h
Assay [1] has as its system CCRF-CEM leukemia.
In assay [2] the test system is BT-549 breast.
Assay [3] relates to UACC-257 melanoma.
In assay [4] the test system is MCF7 breast.
The subject of assay [5] is MOLT-4 leukemia.
Assay [6] concerns SF-295 CNS.
Assay [7] has as its system SK-MEL-28 melanoma.
Assay [8] concerns SK-MEL-5 melanoma.
In assay [9] the test system is M14 melanoma.
Assay [10] deals with RPMI-8226 leukemia.

In the case of `COC1OC2COC(c3ccccc3)OC2C(OC(=S)c2ccccc2)C1O` (stereo not given), the TGI in [1], in assay [2], in [3], in [4], in assay [5] and in [6] was greater than 100 µM throughout. Moreover, the TGI in assay [7], in assay [8], in [9] and in [10] was greater than 100 µM each time.
Consider H-KIFKKFKTIIKKVWRIFGRF-NH2, for which the GI50 in assay [1] is 2.53 µM; in assay [2], 3.54 µM; in assay [3], 2.85 µM; in assay [4], 3.04 µM; in assay [5] it was 3.13 µM; in [6], 2.05 µM. For the same molecule, the GI50 is 2.21 µM in [7], 2.3 µM in [8], 2.37 µM in [9] and 3.11 µM in [10]. In addition, the TGI was greater than 100 µM in [1]; greater than 100 µM in assay [2]; 9.58 µM in assay [3]; greater than 100 µM in assay [4]; greater than 100 µM in assay [5]; 4.68 µM in assay [6]. Further, the TGI in [7] is 5.02 µM; in [8], 5.8 µM; in assay [9], greater than 100 µM; in assay [10], greater than 100 µM.

As usually defined, the TGI is the concentration giving total growth inhibition. Higher therefore signals less potent growth arrest. As a reminder, the GI50 is the concentration that inhibits growth by half.
